Results as given in patent publication US5493007A, “Platelet aggregation inhibitors having high specificity for GPIIBIIIA” (Genentech, Inc., priority 1994, dated 1996).
*1 amine or outer side, *2 acyl side, *3 side chain or, on linkers, in order; H or OH if unused. Where a SMILES comes first, the peptide text is derived from it. Bridges are numbered along the chain shown (N, C = ends). [ ]: non-standard residue; d: D form. Cys(O)(CH2CO) = O=C([C@H](C[S+]([O-])CC(=O)[*:3])N[*:1])[*:2]; Aad = N[C@@H](CCCC(=O)O)C(=O)O; Pen = CC(C)(S)[C@H](N)C(=O)O; dOrn = NCCC[C@@H](N)C(=O)O

Each compound was assayed against human platelet rich plasma (PRP) (Homo sapiens, UniProt P05106+P08514) (assay: In Vitro Human Platelet Aggregation Assay). Conditions: human PRP; read-out: Human Platelet Aggregation IC50.
Sequence of human platelet rich plasma (PRP) (P08514 32-1039): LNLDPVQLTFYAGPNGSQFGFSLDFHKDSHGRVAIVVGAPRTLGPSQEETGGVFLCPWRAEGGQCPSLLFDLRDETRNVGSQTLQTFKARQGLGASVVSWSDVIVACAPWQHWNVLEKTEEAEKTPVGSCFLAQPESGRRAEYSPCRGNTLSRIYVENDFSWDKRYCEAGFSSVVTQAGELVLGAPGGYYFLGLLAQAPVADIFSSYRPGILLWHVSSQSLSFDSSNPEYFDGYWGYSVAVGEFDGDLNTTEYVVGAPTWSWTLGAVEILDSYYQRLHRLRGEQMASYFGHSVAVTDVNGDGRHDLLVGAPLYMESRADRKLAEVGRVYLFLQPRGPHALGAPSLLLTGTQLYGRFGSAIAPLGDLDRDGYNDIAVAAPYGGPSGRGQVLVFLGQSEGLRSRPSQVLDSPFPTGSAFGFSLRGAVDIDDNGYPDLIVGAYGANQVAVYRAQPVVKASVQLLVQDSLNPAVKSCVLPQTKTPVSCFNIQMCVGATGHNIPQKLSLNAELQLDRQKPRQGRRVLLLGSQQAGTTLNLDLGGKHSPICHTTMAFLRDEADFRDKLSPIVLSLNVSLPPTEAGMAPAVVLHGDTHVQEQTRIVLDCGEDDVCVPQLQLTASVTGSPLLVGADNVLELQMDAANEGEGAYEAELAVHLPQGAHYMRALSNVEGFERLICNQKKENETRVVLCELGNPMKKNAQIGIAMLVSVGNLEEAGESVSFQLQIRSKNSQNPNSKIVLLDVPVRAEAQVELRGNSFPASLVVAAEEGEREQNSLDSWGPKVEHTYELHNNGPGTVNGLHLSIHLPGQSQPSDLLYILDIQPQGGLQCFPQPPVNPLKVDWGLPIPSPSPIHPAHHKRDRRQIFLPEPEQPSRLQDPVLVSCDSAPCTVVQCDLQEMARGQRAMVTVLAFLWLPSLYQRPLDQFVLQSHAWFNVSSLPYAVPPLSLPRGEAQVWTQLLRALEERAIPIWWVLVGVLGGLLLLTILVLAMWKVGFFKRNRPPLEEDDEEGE
Sequence of human platelet rich plasma (PRP) (P05106 27-788): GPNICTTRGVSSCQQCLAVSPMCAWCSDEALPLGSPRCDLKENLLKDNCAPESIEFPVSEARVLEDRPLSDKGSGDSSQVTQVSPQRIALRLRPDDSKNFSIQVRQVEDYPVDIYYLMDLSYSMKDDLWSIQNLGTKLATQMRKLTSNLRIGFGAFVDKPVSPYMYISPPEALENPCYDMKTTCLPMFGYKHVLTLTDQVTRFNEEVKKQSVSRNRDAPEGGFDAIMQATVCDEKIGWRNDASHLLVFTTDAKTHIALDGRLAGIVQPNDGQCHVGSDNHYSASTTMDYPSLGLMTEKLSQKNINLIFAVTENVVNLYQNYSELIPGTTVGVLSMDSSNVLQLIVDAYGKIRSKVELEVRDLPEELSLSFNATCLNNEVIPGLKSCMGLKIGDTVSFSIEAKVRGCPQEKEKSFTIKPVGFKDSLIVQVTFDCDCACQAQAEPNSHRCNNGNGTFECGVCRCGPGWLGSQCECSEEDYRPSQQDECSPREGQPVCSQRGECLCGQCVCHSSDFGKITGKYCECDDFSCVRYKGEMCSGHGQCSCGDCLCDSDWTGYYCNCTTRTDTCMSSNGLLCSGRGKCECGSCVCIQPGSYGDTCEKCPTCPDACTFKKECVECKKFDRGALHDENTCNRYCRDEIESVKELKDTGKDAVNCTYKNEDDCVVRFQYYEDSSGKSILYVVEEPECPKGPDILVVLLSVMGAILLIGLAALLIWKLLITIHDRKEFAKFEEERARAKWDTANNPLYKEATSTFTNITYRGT
Assay type: cell-based
Description: Platelet aggregation assays are performed in human platelet rich plasma (PRP). Fifty milliliters of whole human blood (9 parts) is drawn on 3.6% sodium citrate (1 part) from a donor who has not taken aspirin or related medications for at least two weeks. The blood is centrifuged at 160×g for 10 minutes at 22° C. and allowed to stand for 5 minutes after which the PRP is decanted. Platelet poor plasma (PPP) is isolated from the remaining blood after centrifugation at 2000×g for 25 minutes. The platelet count of the PRP is diluted to about 300,000 platelets per microliter with PPP.
A 225 μl aliquot of PRP plus 25 μl of either a dilution of the test inhibitor sample or a control (PBS) is incubated for 5 minutes in a Chrono-log Whole Blood Aggregometer at 25° C. An aggregating agent (collagen, 1 μg/ml; U46619, 100 ng/ml; or ADP, 17 μM) is added and the transmission is recorded.

Q: Which IC50 does the source give for “cyclo-S-acetyl-dTyr--Arg--Gly--Asp--Cys--Tyr--Arg--NH2 [7/43]” here?
A: Its IC50 is 350 nM.

Q: With N=C(N)NCCC[C@@H]1NC(=O)[C@@H](Cc2ccc(O)cc2)NC(=O)CSC[C@@H](C(=O)N[C@@H](CCCCN)C(=O)O)NC(=O)[C@H](CC(=O)O)NC(=O)CNC1=O [7/25, cyclo-S-acetyl-dTyr--Arg--Gly--Asp--Cys--Lys--OH] ({CH2CO}-[dY]RGDCK-OH; thioether N-5) as the compound, how does the IC50 read?
A: Its IC50 is 370 nM.

The compounds below were run on New Zealand White rabbits (assay: Rabbit peripheral blood flow (PBF) by observation of ear vessels). Conditions: rabbit, i.v. bolus 0.5 mg/kg + 0.012 mg/kg infused over 60 minutes; measured visually.
Assay type: in vivo
Design: key to PBF: NORMAL: Normal flow is defined as ears that appear pink to red, with no visible constriction of the major blood vessels; Decreased flow applies to ears that have constricted vessels resulting in cold, pallid ears for up to 40 minutes following the start of the inhibitor infusion
Description: Catheters are flushed and locked after every sample.
For the experiments summarized in Table 1, PBF was monitored by observation of the condition of the blood vessels in the rabbits' ears, prior to and during the infusion. Normal flow is defined as ears that appear pink to red, with no visible constriction of the major blood vessels. Decreased flow applies to ears that have constricted vessels resulting in cold, pallid ears for up to 40 minutes following the start of the inhibitor infusion.

Q: With N=C(N)NCCC[C@H](NC(=O)[C@@H]1C[S+]([O-])CC(=O)N[C@H](Cc2ccc(O)cc2)C(=O)N[C@@H](CCCNC(=N)N)C(=O)NCC(=O)N[C@@H](CC(=O)O)C(=O)N1)C(N)=O (single isomer, unassigned) [drawing 33] as the compound, how does the PBF read?
A: Its PBF is “NORMAL”.

Same assay, conditions: rabbit, i.v. bolus 1.5 mg/kg + 0.036 mg/kg infused over 60 minutes; measured visually

Q: For N=C(N)NCCC[C@@H]1NC(=O)[C@@H](Cc2ccc(O)cc2)NC(=O)CSC[C@@H](C(=O)N[C@H](CCCN)C(N)=O)NC(=O)[C@H](CC(=O)O)NC(=O)CNC1=O [drawing 18] ({CH2CO}-[dY]RGDC[dOrn]-NH2; thioether N-5), which PBF is on record?
A: Its PBF is “NORMAL”.

Q: With N=C(N)NCCC[C@H](NC(=O)[C@@H]1CCCC(=O)N[C@H](Cc2ccc(O)cc2)C(=O)N[C@@H](CCCNC(=N)N)C(=O)NCC(=O)N[C@@H](CC(=O)O)C(=O)N1)C(N)=O [drawing 28] ([dY]RGD[Aad]R-NH2; lactam N-5) as the compound, how does the PBF read?
A: Its PBF is “NORMAL”.

Q: For CC1(C)SCC(=O)N[C@H](Cc2ccc(O)cc2)C(=O)N[C@@H](CCCCN)C(=O)NCC(=O)N[C@@H](CC(=O)O)C(=O)N[C@@H]1C(=O)O [drawing 9] ({CH2CO}-[dY]KGD[Pen]-OH; thioether N-5), which PBF is on record?
A: Its PBF is “NORMAL”.

Q: With N=C(N)NCCC[C@H](NC(=O)[C@@H]1C[S+]([O-])CC(=O)N[C@H](Cc2ccc(O)cc2)C(=O)N[C@@H](CCCNC(=N)N)C(=O)NCC(=O)N[C@@H](CC(=O)O)C(=O)N1)C(N)=O (single isomer, unassigned) [drawing 34] as the compound, how does the PBF read?
A: The PBF was “NORMAL”.

Q: How did the PBF turn out when N=C(N)NCCC[C@@H]1NC(=O)[C@@H](Cc2ccc(O)cc2)NC(=O)C(CCCCN)SC[C@@H](C(=O)O)NC(=O)[C@H](CC(=O)O)NC(=O)CNC1=O (single isomer, unassigned) [drawing 23] was run?
A: The PBF was “NORMAL”.

Q: For N=C(N)NCCC[C@@H]1NC(=O)[C@@H](Cc2ccc(O)cc2)NC(=O)C[S+]([O-])C[C@@H](C(=O)N[C@@H](CCCN)C(N)=O)NC(=O)[C@H](CC(=O)O)NC(=O)CNC1=O (stereo partly drawn), which PBF is on record?
A: Its PBF is “NORMAL”.

Q: How did the PBF turn out when N=C(N)NCCC[C@@H]1NC(=O)[C@@H](Cc2ccc(O)cc2)NC(=O)C(CCCCN)SC[C@@H](C(=O)O)NC(=O)[C@H](CC(=O)O)NC(=O)CNC1=O (single isomer, unassigned) [drawing 22] was run?
A: The PBF was “NORMAL”.

Q: For NCCCC[C@@H]1NC(=O)[C@@H](Cc2ccc(O)cc2)NC(=O)C(c2ccccc2)SC[C@@H](C(=O)O)NC(=O)[C@H](CC(=O)O)NC(=O)CNC1=O (single isomer, unassigned) [drawing 13], which PBF is on record?
A: Its PBF is “NORMAL”.

Q: With N=C(N)NCCC[C@H](NC(=O)[C@@H]1CSCC(=O)N[C@H](Cc2ccc(O)cc2)C(=O)N[C@@H](CCCNC(=N)N)C(=O)NCC(=O)N[C@@H](CC(=O)O)C(=O)N1)C(N)=O [drawing 15] ({CH2CO}-[dY]RGDCR-NH2; thioether N-5) as the compound, how does the PBF read?
A: The PBF was “NORMAL”.

Q: N=C(N)NCCC[C@@H]1NC(=O)[C@@H](Cc2ccc(O)cc2)NC(=O)[C@@H](CCCNC(=N)N)SC[C@@H](C(=O)O)NC(=O)[C@H](CC(=O)O)NC(=O)CNC1=O was tested. Which PBF did it give?
A: The PBF was “NORMAL”.

Q: N=C(N)NCCC[C@@H]1NC(=O)[C@@H](Cc2ccc(O)cc2)NC(=O)CSC[C@@H](C(=O)N[C@@H](CCCCN)C(=O)O)NC(=O)[C@H](CC(=O)O)NC(=O)CNC1=O [drawing 32] ({CH2CO}-[dY]RGDCK-OH; thioether N-5) was tested. Which PBF did it give?
A: Its PBF is “NORMAL”.

Q: N=C(N)NCCC[C@@H]1NC(=O)[C@@H](Cc2ccc(O)cc2)NC(=O)[C@H](CCCNC(=N)N)SC[C@@H](C(=O)O)NC(=O)[C@H](CC(=O)O)NC(=O)CNC1=O was tested. Which PBF did it give?
A: The PBF was “NORMAL”.

Q: With CC1(C)SCC(=O)N[C@H](Cc2ccc(O)cc2)C(=O)N[C@@H](CCCCN)C(=O)NCC(=O)N[C@@H](CC(=O)O)C(=O)N[C@@H]1C(=O)N[C@@H](CCCNC(=N)N)C(N)=O [drawing 26] ({CH2CO}-[dY]KGD[Pen]R-NH2; thioether N-5) as the compound, how does the PBF read?
A: Its PBF is “NORMAL”.

Q: With N=C(N)NCCC[C@@H]1NC(=O)[C@@H](Cc2ccc(O)cc2)NC(=O)CCC[C@@H](C(=O)N[C@@H](CCCCN)C(N)=O)NC(=O)[C@H](CC(=O)O)NC(=O)CNC1=O [drawing 29] ([dY]RGD[Aad]K-NH2; lactam N-5) as the compound, how does the PBF read?
A: The PBF was “NORMAL”.

Same assay, conditions: rabbit, i.v. bolus .375 mg/kg + 0.009 mg/kg infused over 60 minutes; measured visually

Q: How did the PBF turn out when N=C(N)NCCC[C@@H]1NC(=O)[C@@H](Cc2ccc(O)cc2)NC(=O)C[S+]([O-])C[C@@H](C(=O)O)NC(=O)[C@H](CC(=O)O)NC(=O)CNC1=O (stereo partly drawn) ([dY]RGD[Cys(O)(CH2CO)]-OH; lactam N-5) was run?
A: The PBF was “NORMAL”.
